The values below come from article PMC12736293, “Design of Artificial Peptide Against HIV-1 Based on the Heptad-Repeat Rules and Membrane-Anchor Strategies” (Pharmaceuticals, 2025).

Like-named read-outs stand apart in the source and are kept apart here. Square brackets hold non-standard residues; d marks the D form. Peptide text beside a SMILES is read from it. * marks the point of attachment. X1 = CC(C)CCC[C@@H](C)[C@H]1CC[C@H]2[C@@H]3CC=C4C[C@@H](OC(=O)C*)CC[C@]4(C)[C@H]3CC[C@]12C; Palmitoyl = CCCCCCCCCCCCCCCC(=O)*; βAla = NCCC(=O)O

For series [1], the system named is HIV-1 Env-mediated cell–cell fusion (H9/HIV-1 IIIB cells and MT-2 cells). The format is cell-based. The note with it: for IC50: Calcein AM-labelled H9/HIV-1 IIIB cells, peptide 30 min at 37 °C, then MT-2 cells 2 h, fused cells counted by fluorescence microscopy, triplicate, mean ± SD, read-out: IC50, inhibitory activity on HIV-1 Env-mediated cell–cell fusion. How it is done: 4.2. HIV-1 Env-Mediated Cell–Cell Fusion Assay
Briefly, the fluorescent reagent Calcein AM (abcam, Shanghai, China) was used to label H9/HIV-1 IIIB cells (obtained from the Inner Mongolia Autonomous Region New Drug Screening Engineering Research Center in Inner Mongolia Medical University, Hohhot, China). First, 2.5 μL of Calcein AM was used to stain 2 × 10^5 H9/HIV-1 IIIB cells. After labeling at 37 °C for 30 min, the cells were washed twice with PBS (Thermo Fisher Scientific, Waltham, MA, USA) and resuspended in fresh RPMI 1640 (Sigma-Aldrich, St. Louis, MO, USA) medium supplemented with 10% FBS. Next, 50 μL of diluted peptides and 50 μL of a mixture containing 2 × 10^5 H9/HIV-1 IIIB cells/mL were added to a 96-well cell culture plate and incubated at 37 °C for 30 min. Subsequently, 1 × 10^5 MT-2 cells were added to the mixture and cultured at 37 °C for 2 h. The fused cells were quantified using an inverted fluorescence microscope. The IC50 values were calculated using CalcuSyn software (Version 2.0).

The subject of series [2] is HIV-1 pseudovirus derived from the JFRL macrophagic strain (subtype B) on U87 CD4+ CCR5+ cells. It is filed as cell-based. Particulars: luciferase read-out 48 h post-infection. On the procedure:
4.3. Neutralization Assay of HIV-1 Pseudovirus
Briefly, U87 CD4^+ CCR5^+ cells (obtained from the Inner Mongolia Autonomous Region New Drug Screening Engineering Research Center in Inner Mongolia Medical University, Hohhot, China) (1 × 10^4 cells/well) were plated in 96-well tissue culture plates and incubated at 37 °C in a humidified 5% CO2 atmosphere for 12 h to allow cell adherence. Serial dilutions of the test peptides were prepared, and each dilution was mixed with the HIV-1 pseudovirus derived from the JFRL macrophagic strain (subtype B). After incubating the virus-peptide mixtures at 37 °C for 30 min to allow interaction, the mixtures were transferred to the pre-seeded U87 CD4^+ CCR5^+ cells. At 12 h post-infection, the culture medium was refreshed to remove unbound viruses and excess peptides. Forty-eight hours post-infection, the cells were lysed using Cell Culture Lysis Reagent (Promega, Madison, WI, USA), and the luminescence intensity (reflecting luciferase activity) was quantified using the Luciferase Assay System (Promega, E4030) according to the manufacturer’s instructions.

The target in series [3] is T1, N36/C34 six-helix bundle (6-HB) (Human immunodeficiency virus type 1 group M subtype B, UniProt P04578).
T1 construct: corresponding to the NHR region of gp41 (residues 546–581); made in house; host or cells: chemical synthesis (Fmoc solid-phase)
T1 sequence (P04578 546-581): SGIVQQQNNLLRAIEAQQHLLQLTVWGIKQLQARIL
The experiment in a line: N-PAGE detection of blocking of 6-HB formation between C34 and N36. The format is biochemical, HIV-1. The note with it: N36 (20 μM) with rising peptide concentration, 37 °C 30 min, then C34 (20 μM) 30 min. On the procedure:
Figure 5 (A) N-PAGE to detect the blocking of 6-HB formation between C34 and N36 by EK35S peptide. N36 (20 μM) with or without EK35S was incubated at 37 °C for 30 min, followed by the addition of C34 (20 μM). The mixture was incubated at 37 °C for another 30 min before loading into the gel; (B) N-PAGE to detect the blocking of 6-HB formation between C34 and N36 by EK35S-Plam peptide. N36 (20 μM) with or without EK35S-Plam was incubated at 37 °C for 30 min, followed by the addition of C34 (20 μM). The mixture was incubated at 37 °C for another 30 min before loading into the gel.
4.6. Methods for Native Polyacrylamide Gel Electrophoresis (N-PAGE)
Peptides, as well as their equimolar mixtures, were prepared at a final concentration of 100 μM in PBS (10 mM, pH 7.4) and incubated at 37 °C for 30 min. After incubation, the peptide solutions were mixed with methyl green loading buffer in a 1:1 ratio, and 20 μL of each sample was loaded into the wells of the gel. Gel electrophoresis was performed at room temperature, initially at a constant voltage of 90 V for 0.5 h, followed by 150 V for 2–3 h. The gels were then stained with Coomassie Brilliant Blue G250 (Bio-Rad, Shanghai, China), and images were captured using the ChampGel 6000 Imaging System (Sage Creation Ltd., Beijing, China).

The conditions of series [4]: liver microsomes. (Liver microsomes are vesicles of endoplasmic reticulum, rich in cytochrome P450 enzymes.)
Protocol: Phase I Metabolic Stability Assay
(§1) Experiments were carried out using the Phase I Metabolic Stability Research Kit (IPHASE, Suzhou, China). Solution A in the kit was pre-incubated at 37 °C for 5 min, and solution B was prepared from PBS (100 mM), the subject (or positive substrate), and liver microsomes. The above two were mixed and immediately placed in a 37 °C water bath for incubation. The incubation solution is quantitatively removed from the incubation system at preset time points (0, 5, 10, 15, 30, 60 min), and an equal volume of termination solution is added. Each sample was run in parallel three times. The substrate remaining amount at each time point was determined by RP-HPLC (Shimadzu preparative HPLC system, Shimadzu Corporation, Kyoto, Japan), the substrate remaining percentage was calculated, and the slope k was determined by linear regression analysis to calculate the Elimination half-life and Hepatic microsomal intrinsic clearance.
For series [5], the target named is T1, N36/C34 six-helix bundle (6-HB). The series can be described thus: SE-HPLC analysis of 6-HB formation between N36 and C34. The format is biochemical, HIV-1. The note with it: gradual addition of peptide to the C34/N36 mixture; PBS pH 7.4, BioSep-SEC-S2000, 210 nm.
The nature of another series: in vitro. The note with it: liver microsomes.

Protocol for in vitro: Phase I Metabolic Stability Assay
as §1

As to `CC[C@H](C)[C@H](NC(C)=O)C(=O)N[C@@H](CCC(=O)O)C(=O)N[C@@H](CCC(=O)O)C(=O)N[C@@H](CC(C)C)C(=O)N[C@@H](CO)C(=O)N[C@@H](CCCCN)C(=O)N[C@@H](CCCCN)C(=O)N[C@H](C(=O)N[C@@H](CCC(=O)O)C(=O)N[C@@H](CCC(=O)O)C(=O)N[C@@H](CC(C)C)C(=O)N[C@@H](CO)C(=O)N[C@@H](CCCCN)C(=O)N[C@@H](CCCCN)C(=O)N[C@H](C(=O)N[C@@H](CCC(=O)O)C(=O)N[C@@H](CCC(=O)O)C(=O)N[C@@H](CC(C)C)C(=O)N[C@@H](CO)C(=O)N[C@@H](CCCCN)C(=O)N[C@@H](CCCCN)C(=O)N[C@H](C(=O)N[C@@H](CCC(=O)O)C(=O)N[C@@H](CCC(=O)O)C(=O)N[C@@H](CC(C)C)C(=O)N[C@@H](CO)C(=O)N[C@@H](CCCCN)C(=O)N[C@@H](CCCCN)C(=O)N[C@H](C(=O)N[C@@H](CCC(=O)O)C(=O)N[C@@H](CCC(=O)O)C(=O)N[C@@H](CC(C)C)C(=O)N[C@@H](CO)C(=O)N[C@@H](CCCCN)C(=O)N[C@@H](CCCCN)C(=O)NCCC(=O)N[C@@H](CSCC(=O)O[C@H]1CC[C@@]2(C)C(=CC[C@H]3[C@@H]4CC[C@H]([C@H](C)CCCC(C)C)[C@@]4(C)CC[C@@H]32)C1)C(N)=O)[C@@H](C)CC)[C@@H](C)CC)[C@@H](C)CC)[C@@H](C)CC` [EK35S-Chol] (Ac-IEELSKKIEELSKKIEELSKKIEELSKKIEELSKK[βAla]C(X1)-NH2), the IC50 (as a rule, the midpoint of a concentration-inhibition curve) is over 100 µM in series [1] and 85.7 ± 2.02 µM in series [2].
Turning to `CCCCCCCCCCCCCCCC(=O)NCCCC[C@H](NC(=O)CCNC(=O)[C@H](CCCCN)NC(=O)[C@H](CCCCN)NC(=O)[C@H](CO)NC(=O)[C@H](CC(C)C)NC(=O)[C@H](CCC(=O)O)NC(=O)[C@H](CCC(=O)O)NC(=O)[C@@H](NC(=O)[C@H](CCCCN)NC(=O)[C@H](CCCCN)NC(=O)[C@H](CO)NC(=O)[C@H](CC(C)C)NC(=O)[C@H](CCC(=O)O)NC(=O)[C@H](CCC(=O)O)NC(=O)[C@@H](NC(=O)[C@H](CCCCN)NC(=O)[C@H](CCCCN)NC(=O)[C@H](CO)NC(=O)[C@H](CC(C)C)NC(=O)[C@H](CCC(=O)O)NC(=O)[C@H](CCC(=O)O)NC(=O)[C@@H](NC(=O)[C@H](CCCCN)NC(=O)[C@H](CCCCN)NC(=O)[C@H](CO)NC(=O)[C@H](CC(C)C)NC(=O)[C@H](CCC(=O)O)NC(=O)[C@H](CCC(=O)O)NC(=O)[C@@H](NC(=O)[C@H](CCCCN)NC(=O)[C@H](CCCCN)NC(=O)[C@H](CO)NC(=O)[C@H](CC(C)C)NC(=O)[C@H](CCC(=O)O)NC(=O)[C@H](CCC(=O)O)NC(=O)[C@@H](NC(C)=O)[C@@H](C)CC)[C@@H](C)CC)[C@@H](C)CC)[C@@H](C)CC)[C@@H](C)CC)C(N)=O` [EK35S-Palm] (Ac-IEELSKKIEELSKKIEELSKKIEELSKKIEELSKK[βAla]K(Palmitoyl)-NH2), the “fold more potent than the parent EK35S” value in series [1] (cell–cell fusion and pseudovirus inhibition (Table 2 and Figure 3)) is listed as “over 200 fold”. Also, in series [3], the “effect on the 6-HB band (N-PAGE)” value is listed as “gradually became significantly lighter”. For the same compound, the half-life (usually the time needed for the level to fall by half in the phase considered) in series [4] was 3.61 h. Also, the “effect on the 6-HB complex peak (SE-HPLC)” value in series [5] is listed as “decreased significantly”.
For “Ac-IEELFKKIEELFKKIEELFKKIEELFKKIEELFKK-NH2 [EK35F]”, the IC50 in series [1] was 92.4 ± 9.22 µM; in series [2], 110 ± 2.37 µM.
On the same counts, the results for “Ac-IEELIKKIEELIKKIEELIKKIEELIKKIEELIKK-NH2 [EK35]” are over 100 µM and 119 ± 1.39 µM.
On the same counts, the results for “Ac-IEELMKKIEELMKKIEELMKKIEELMKKIEELMKK-NH2 [EK35M]” are 15.8 ± 8.92 µM and 25.3 ± 0.85 µM.
For “Ac-IEELSKKIEELSKKIEELSKKIEELSKKIEELSKK-NH2 [EK35S]”, the IC50 in series [1] was 5.98 ± 1.23 µM; in series [2] it was 2.42 ± 0.18 µM. In addition, the “effect on the 6-HB band (N-PAGE)” value in series [3] was “no obvious change”. Further, the “effect on the 6-HB complex peak (SE-HPLC)” value in series [5] is recorded as “does not affect 6-HB peak”. In the series “in vitro”, this compound displayed a half-life of 2.22 h.
Take “Ac-IEELYKKIEELYKKIEELYKKIEELYKKIEELYKK-NH2 [EK35Y]”: the results for the IC50 in series [1] and in series [2] were 23.2 ± 6.72 µM and 15.2 ± 0.65 µM, respectively.
On the same counts, the results for Enfuvirtide are 0.008 ± 0.002 µM and 0.00824 ± 0.00087 µM.
On the same counts, the results for “IEELSKK IEELSKK IEELSKK IEELSKK IEELSKK-OApc [EK35S-OApc, EK35S conjugated with protected oleanolic acid derivative OApc via click chemistry]” are 4.82 ± 0.89 µM and 1.88 ± 0.14 µM.
Regarding enfuvirtide, the half-life in “in vitro” stood at 2.51 h.
